Laboratory results published in patent US20230203560A1, “GLUCOSYL ESTERS FOR INFECTION SCREENING” (Board of Regents, The University of Texas System, priority 2020, published 2023).

What was measured:
leukocyte esterase (LE) [1] = test: Electrochemical LE assay in human urine: glucose released from glucosyl ester, read on glucose test strip with potentiostat; type: biochemical; conditions: for sample incubation time with ester to yield enough glucose to be above the detection limit of the potentiostat/glucose strip system: human urine spiked with LE, 5.5 mM ester, glucose detection limit 5 μM
Experimental: (§1) The human leukocyte suspension in 154 mM NaCl solution (cat. No. MBS173116, 0.0867 mg mL^−1 leukocyte esterase (LE) protein, 4×10^8 WBC mL^−1) was purchased from MyBioSource (San Diego, Calif.). The suspension was diluted 10 times with a 90:10 vol. % mixture of 50 mM phosphate buffer saline (PBS, pH 7.40, 154 mM NaCl) solution and dimethylsulfoxide, left for 10 min to lyse the leukocytes chemically, sonicated for 30 s with a Q125 Qsonica probe (20% power) to further lyse them mechanically, and centrifuged at 15 000×g for 30 min. The resulting supernatant that contained LE was stored at −20° C.
The human synovial fluid (DLS0092658) was purchased from Discovery Life Sciences (Los Osos, Calif.) and stored at −70° C. when not in use. The clean-catch midstream portion of human urine (˜15.0 mL) was collected early in the morning in a 50.0-mL sterile centrifuge tube (Fisher Scientific, Pittsburgh, Pa.) centrifuged at 600×g for 5 min, and the supernatant was stored at −20° C. The synovial fluid and urine were spiked with known amount of LE before the analysis.
Electrochemical Measurements. The glucose strip was inserted into an electronic holder (DropSens, Llanera, Spain), which was then connected to a CHE 832B potentiostat (other potentiostats could also be used). The strip was used in a 2-electrode mode with the counter and reference electrodes connected together as a single cathode and a working electrode serving as an anode (the strip's fill-detector electrode was not used). The potential applied to a working electrode was equal to 0.15 V vs. strip's reference/counter electrode.
The 0.15 V potential was applied to a glucose strip, which was then contacted at time t=0 s with a small drop of sample (˜10 μL) that was placed on a Petri dish (FIG. 2). The amperogram obtained in such a way was integrated between t=2 and t=22 s to determine the charge Q flowing through the strip. Two charges were always determined: Q(ester) for a sample incubated with 5.5 mM ester for 5 min, and Q(no ester) for an original sample without ester. The difference in charge ΔQ [=Q(ester)−Q(no ester)] was proportional to the enzymatic activity of LE in a sample.
The samples were incubated with each ester to release glucose in the direct proportion to the enzymatic activity of LE in a sample. The released glucose was then detected at a commercial glucose test strip. A laboratory potentiostat was used to read the glucose strip. The strip was inserted in an electronic holder to facilitate the measurements (FIG. 2). Such a strip-potentiostat measuring system provided a much lower limit of glucose detection (5.0 μM, S/N=3; FIG. 3A) and a linear range at least up to 100 μM glucose (FIG. 3B), which allowed for a much shorter (minutes) incubation times (FIG. 4).

leukocyte esterase (LE) [2] = test: Electrochemical LE assay in human synovial fluid: glucose released from glucosyl ester, read on glucose test strip with potentiostat; type: biochemical; conditions: human synovial fluid spiked with LE; 5.5 mM ester
Experimental: as §1
The human synovial fluid (DLS0092658) was purchased from Discovery Life Sciences (Los Osos, Calif.) and stored at −70° C. when not in use. […]
The 0.15 V potential was applied to a glucose strip, which was then contacted at time t=0 s with a small drop of sample (˜10 μL) that was placed on a Petri dish (FIG. 2). […] Two charges were always determined: Q(ester) for a sample incubated with 5.5 mM ester for 5 min, and Q(no ester) for an original sample without ester. […]
The samples were incubated with each ester to release glucose in the direct proportion to the enzymatic activity of LE in a sample. The released glucose was then detected at a commercial glucose test strip. A laboratory potentiostat was used to read the glucose strip. […]

| Compound | sample incubation time with ester to yield enough glucose to be above the detection limit of the potentiostat/glucose strip system (leukocyte esterase (LE) [1]) [min] | sample incubation time with ester before reading the glucose strip (leukocyte esterase (LE) [2]) [min] | kinetics of the enzymatic reaction of LE with the ester, compared to ester α (leukocyte esterase (LE) [1]; ascribed from longer incubation time and lower calibration slope) | calibration slope (ΔQ vs LE concentration) lower than with ester α (leukocyte esterase (LE) [1]; human urine, ester γ 10 min vs ester α 5 min incubation (FIG. 8)) [%] |
| --- | --- | --- | --- | --- |
| Cc1ccc(S(=O)(=O)N[C@@H](C)C(=O)OCCCC(=O)O[C@@H]2O[C@H](CO)[C@@H](O)[C@H](O)[C@H]2O)cc1 [ester α, (2S,3R,4S,5S,6R)-3,4,5-trihydroxy-6-(hydroxymethyl)oxan-2-yl 4-{[(2S)-2-(4-methylbenzenesulfonamido)propanoyl]oxy}butanoate] | 5 | 5 | – | – |
| Cc1ccc(S(=O)(=O)N[C@@H](C)C(=O)OCCNC(=O)O[C@H]2O[C@H](CO)[C@@H](O)[C@H](O)[C@H]2O)cc1 [ester γ, 2-[({[(2R,3R,4S,5S,6R)-3,4,5-trihydroxy-6-(hydroxymethyl)oxan-2-yl]oxy}carbonyl)amino]ethyl (2S)-2-(4-methylbenzenesulfonamido)propanoate] | 10 | – | slower kinetics | ~10 |
